Results: ChEMBL document CHEMBL4321784, “Inhibiting Hedgehog: An Update on Pharmacological Compounds and Targeting Strategies” (J Med Chem, 2019)
Values belong to the compound of their own block, whether it stands above or below them.

What was measured:
Format in all cases: cell-based
[1] = biological target: T1, Protein-cysteine N-palmitoyltransferase HHAT (Homo sapiens, UniProt Q5VTY9); assay: Inhibition of HA/FLAG/His-tagged HHAT (unknown origin) expressed in 293FT cells assessed as enzyme-mediated sonic hedgehog palmitoylation incubated for 20 mins followed by [125I]iodo-palmitoyl CoA and Shh biotinylated peptide and measured after 1 hr by Scintillation proximity assay
T1 sequence (Q5VTY9 whole entry, the tested form may be a part): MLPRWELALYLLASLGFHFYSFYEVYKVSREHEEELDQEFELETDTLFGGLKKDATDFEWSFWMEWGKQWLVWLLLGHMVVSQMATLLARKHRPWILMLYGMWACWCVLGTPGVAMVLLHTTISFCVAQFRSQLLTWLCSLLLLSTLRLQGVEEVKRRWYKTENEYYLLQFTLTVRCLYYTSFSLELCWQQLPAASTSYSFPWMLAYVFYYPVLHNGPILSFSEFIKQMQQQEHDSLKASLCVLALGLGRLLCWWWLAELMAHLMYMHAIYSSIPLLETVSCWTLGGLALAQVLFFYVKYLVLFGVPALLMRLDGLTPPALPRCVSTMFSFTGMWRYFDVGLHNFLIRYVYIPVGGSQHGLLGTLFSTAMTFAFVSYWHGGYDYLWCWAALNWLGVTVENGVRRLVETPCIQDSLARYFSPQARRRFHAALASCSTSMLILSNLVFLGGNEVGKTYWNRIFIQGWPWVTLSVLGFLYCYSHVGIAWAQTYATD

[2] = biological target: T1, Protein-cysteine N-palmitoyltransferase HHAT; assay: Inhibition of 3C-FLAG/His8-tagged human HHAT expressed in HEK293 cells assessed as reduction in enzyme-mediated sonic hedgehog (1 to 11 residues) palmitoylation by click-ELISA method
[3] = biological target: Zinc finger protein GLI1/GLI2 (Mus musculus, UniProt P47806+Q0VGT2); assay: Inhibition of GLI1/GLI2 in mouse Shh Light2 cells assessed as reduction in endogenous hedgehog signalling in presence of Smo agonist SAG by luciferase reporter gene assay
[4] = Inhibition of mouse Smo A1 mutant expressed in mouse Shh Light2 cells assessed as reduction in hedgehog pathway activation incubated for 30 hrs by luminescence assay
[5] = biological target: Sonic hedgehog protein (Mus musculus, UniProt Q62226); assay: Inhibition of sonic hedgehog signaling in mouse Shh Light2 cells after […] by Bright-Glo luciferase assay
Sequence of Sonic hedgehog protein (Q62226 25-198 limits assumed): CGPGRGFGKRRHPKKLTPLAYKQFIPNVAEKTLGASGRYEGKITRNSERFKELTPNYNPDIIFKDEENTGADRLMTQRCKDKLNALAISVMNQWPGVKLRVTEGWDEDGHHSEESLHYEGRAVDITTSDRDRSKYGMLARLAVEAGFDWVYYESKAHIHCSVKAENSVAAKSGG

IC50 [1]: 850 nM
SMILES: CCC(C)CNCC(=O)N1CCc2sccc2C1COc1cccc(C)c1 (stereo unspecified)

IC50 [2]: 200 nM
SMILES: CCC(C)CNCC(=O)N1CCc2sccc2C1c1cccc(C)n1 (stereo unspecified)

IC50 [3]: 5000 nM
SMILES: CN(C)c1ccccc1CN1CCCN(Cc2ccccc2N(C)C)C1c1ccncc1

IC50 [3]: 5000 nM
SMILES: c1cc(-c2sc(-c3ccncc3)c(-c3ccncc3)c2-c2ccncc2)ccn1

IC50 [4]: 800 nM
SMILES: CCC(C)n1ncn(-c2ccc(N3CCN(c4ccc(OCC5COC(Cn6cncn6)(c6ccc(Cl)cc6Cl)O5)cc4)CC3)cc2)c1=O (stereo unspecified) [ITRACONAZOLE]

IC50 [5]: 4000 nM
SMILES: O=C(C[C@@H]1C/C=C/CCC(=O)O[C@H](c2ccccc2)CNC1=O)NCc1ccc(Cl)cc1 [ROBOTNIKININ]
